This note sets out measurements from PubChem BioAssay (NCI).

Among the test systems are CAKI-1 renal; M14 melanoma; UO-31 renal; UACC-62 melanoma; IGROV1 ovarian; SF-539 CNS; KM12 colon; A549 NSCLC; OVCAR-3 ovarian; OVCAR-5 ovarian.
Holding throughout (test): NCI-60 cell line screen, 48 h

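96-well plates; 48 h exposure; 5 concentrations. Endpoints by linear interpolation between flanking doses. Not reached: highest tested concentration assigned. TGI: total growth inhibition.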 A value given as a limit tells only on which side of the number the result lay.

As to `CCOc1cc(/C=N/c2nc3cc4sc(/N=C/c5ccc(O)c(OCC)c5)nc4cc3s2)ccc1O`, the TGI in the test on CAKI-1 renal is > 100 µM; in the test with M14 melanoma, > 100 µM; in the test on UO-31 renal, > 100 µM; with UACC-62 melanoma it was > 100 µM; in the test with IGROV1 ovarian, > 100 µM; in the test on SF-539 CNS it was 62.3 µM. The TGI in the test on KM12 colon, with A549 NSCLC, in the test on OVCAR-3 ovarian and in the test with OVCAR-5 ovarian was > 100 µM throughout.
Regarding `O=C1C[C@@H]2[C@@H](CCC23CCCC3)N1`, the TGI in the test on CAKI-1 renal, in the test with M14 melanoma, with UO-31 renal, in the test on UACC-62 melanoma, in the test with IGROV1 ovarian and in the test on SF-539 CNS was > 100 µM throughout. Further, the TGI in the test with KM12 colon, in the test on A549 NSCLC, in the test on OVCAR-3 ovarian and with OVCAR-5 ovarian was > 100 µM in each case.
With `CN(CC(=O)O)CC(=O)O`, the TGI with CAKI-1 renal, in the test on M14 melanoma, with UO-31 renal, in the test on UACC-62 melanoma, in the test with IGROV1 ovarian and in the test with SF-539 CNS was > 100 µM each time. Besides, the TGI in the test on KM12 colon, in the test with A549 NSCLC, with OVCAR-3 ovarian and in the test on OVCAR-5 ovarian was > 100 µM each time.
Regarding `Brc1c2c(c(Br)c3nsnc13)N=S=N2`, the TGI in the test with CAKI-1 renal is 40.4 µM; with M14 melanoma, 50.5 µM; with UO-31 renal it was 56.7 µM; in the test on UACC-62 melanoma, 33.5 µM; in the test on IGROV1 ovarian it was > 60.7 µM; in the test with SF-539 CNS it was 57.6 µM. The TGI was > 100 µM in the test with KM12 colon, > 100 µM in the test on A549 NSCLC, 68.6 µM in the test with OVCAR-3 ovarian and 64.3 µM in the test with OVCAR-5 ovarian.
As for `O=C(NC(=O)c1ccccc1)OC(c1ccccc1)C1CO1` (stereo not given), the TGI in the test with CAKI-1 renal, in the test on M14 melanoma, in the test with UO-31 renal, with UACC-62 melanoma, in the test on IGROV1 ovarian and with SF-539 CNS was > 100 µM each time. The TGI in the test on KM12 colon, with A549 NSCLC, in the test with OVCAR-3 ovarian and in the test on OVCAR-5 ovarian was > 100 µM in each case.
With `COC(=O)[C@H](C)NC(=O)C1(CNC(=O)[C@H](C)NC(=O)OC(C)(C)C)Cc2ccccc2-c2ccccc2C1`, the TGI is > 39.6 µM with CAKI-1 renal; > 78.5 µM in the test on M14 melanoma; 11.6 µM with UO-31 renal; 34 µM in the test with UACC-62 melanoma; 33.2 µM with IGROV1 ovarian; > 58.1 µM with SF-539 CNS. Besides, the TGI with KM12 colon is 40.2 µM; with A549 NSCLC it was 48.8 µM; with OVCAR-3 ovarian it was 49.6 µM; in the test on OVCAR-5 ovarian, 41.1 µM.
Consider `O=[N+]([O-])c1cnc(N(CCO)CCO)s1`, for which the TGI with CAKI-1 renal, in the test on M14 melanoma, in the test with UO-31 renal, with UACC-62 melanoma, in the test on IGROV1 ovarian and with SF-539 CNS was > 100 µM throughout. Further, the TGI in the test on KM12 colon, in the test on A549 NSCLC, in the test on OVCAR-3 ovarian and in the test on OVCAR-5 ovarian was > 100 µM each time.
Turning to `CC(C)COC(=O)c1ccc(N=Cc2ccc(C=Nc3ccc(C(=O)OCC(C)C)cc3)cc2)cc1`, the TGI in the test with CAKI-1 renal, in the test with M14 melanoma, in the test with UO-31 renal, with UACC-62 melanoma, with IGROV1 ovarian and in the test on SF-539 CNS was > 100 µM each time. The TGI in the test with KM12 colon, in the test on A549 NSCLC, in the test on OVCAR-3 ovarian and with OVCAR-5 ovarian was > 100 µM in each case.
For the compound `CN1CN(c2ccccc2)C2(CCN(C3Nc4ccccc4O3)CC2)C1=O` (stereo not given), the TGI is > 100 µM with CAKI-1 renal; 46.2 µM in the test with M14 melanoma; 69.8 µM in the test with UO-31 renal; 31 µM with UACC-62 melanoma; 58.5 µM in the test on IGROV1 ovarian; 28.9 µM in the test with SF-539 CNS. For the same compound, the TGI in the test on KM12 colon is 51.5 µM; in the test with A549 NSCLC, > 100 µM; in the test on OVCAR-3 ovarian, 31.7 µM; in the test with OVCAR-5 ovarian, 48.2 µM.
`O=C(NNC(=S)Nc1ccc(Cl)cc1)C12CC3CC(CC(C3)C1)C2`: the TGI amounted to 49.5 µM in the test on CAKI-1 renal; 26.6 µM with M14 melanoma; 19 µM in the test on UO-31 renal; 21.8 µM with UACC-62 melanoma; 33.1 µM in the test on IGROV1 ovarian; 14.3 µM in the test on SF-539 CNS. Besides, the TGI in the test on KM12 colon was > 51.6 µM; with A549 NSCLC, 24.9 µM; in the test on OVCAR-3 ovarian, 10.6 µM; in the test with OVCAR-5 ovarian, 81.1 µM.
In the case of `CCOc1ccc(N2C(=O)NC3(c4ccccc4)N(C)C(=O)N(C)C23c2ccccc2)cc1` (stereo not given), the TGI with CAKI-1 renal, in the test with M14 melanoma, in the test on UO-31 renal, in the test on UACC-62 melanoma, with IGROV1 ovarian and in the test with SF-539 CNS was > 100 µM throughout. The TGI in the test with KM12 colon, in the test with A549 NSCLC, in the test with OVCAR-3 ovarian and with OVCAR-5 ovarian was > 100 µM in each case.
For the compound `Cc1cccc2c(N)c3cccc(C(=O)NCC[N+](C)(C)Cc4ccc(S(C)(=O)=O)cc4)c3nc12`, the TGI with CAKI-1 renal, with M14 melanoma, with UO-31 renal, in the test with UACC-62 melanoma, with IGROV1 ovarian and in the test on SF-539 CNS was > 100 µM each time. The TGI in the test with KM12 colon, with A549 NSCLC, in the test on OVCAR-3 ovarian and in the test on OVCAR-5 ovarian was > 100 µM each time.
Consider `OCC1C2CCC3(OCCO3)C12` (stereo not given), for which the TGI with CAKI-1 renal was > 100 µM; with M14 melanoma, > 100 µM; in the test with UO-31 renal, 29.6 µM; in the test on UACC-62 melanoma it was 33 µM; in the test with IGROV1 ovarian it was > 100 µM; in the test on SF-539 CNS, > 100 µM. For the same compound, the TGI in the test with KM12 colon, in the test on A549 NSCLC, in the test on OVCAR-3 ovarian and in the test on OVCAR-5 ovarian was > 100 µM each time.
